{"source": "patent US20210052741A1", "about": "“GENE THERAPY METHODS AND COMPOSITIONS USING AUXOTROPHIC REGULATABLE CELLS” (AUXOLYTIC LTD, priority 2018, published 2021)", "format_in_all_cases": "cell-based, human", "key": {"[1]": {"tested_on": "UMPS-7 targeted T cells", "experiment": "5-FOA selection, cell counts after 4 days", "details": "for Average of cells per volume unit: UMPS-7, 4 days in 5-FOA without serum; for Average number of cells per volume unit: UMPS-7, 4 days in 5-FOA", "method": "(§1) 5-FOA selects for uracil auxotrophic cells in other organisms (e.g. Boeke et al. 1984, Mol. Gen. Genet. 197(2):345-6), which is hereby incorporated by reference in its entirety). To investigate the potential utility of 5-FOA for the selection of uracil auxotrophs among human cells, the UMPS gene was targeted in human T cells by Cas9-gRNA complex electroporation followed by recovery (as shown in Example 2) followed by an assay of resistance to 5-FOA treatment (FIG. 3A). Cells were grown in 5-FOA and a variety of combinations of serum and uracil sources for 4 days before cell counting was performed."}, "[2]": {"tested_on": "Mock T cells", "experiment": "5-FOA selection, cell counts after 4 days", "details": "for Average of cells per volume unit / Average number of cells per volume unit: Mock; for Average of cells per volume unit: 4 days in 5-FOA without serum; for Average number of cells per volume unit: 4 days in 5-FOA", "method": "as §1"}, "[3]": {"tested_on": "GFP+ UMPS^KO/KO hESCs", "experiment": "5-FOA resistance in hESC co-culture (FACS)", "details": "for Viable cell counts, GFP+: co-culture", "excerpt": "(§2) To assess resistance to 5-FOA, the UMPS-KO hESCs were genetically engineered to express GFP from an expression cassette integrated into a safe-harbor locus for easier identification in co-culture with UMPS-WT cells.\n(§3) These UMPS^KO/KO hESCs were mixed with UMPS^WT/WT cells that were not expressing GFP and followed up by fluorescence-activated cell sorting (FACS) analysis in the presence of different concentrations of 5-FOA. Table 16 provides counts of viable GFP+ and GFP− cells after culture with different 5-FOA concentrations."}, "[4]": {"tested_on": "GFP- UMPS^WT/WT hESCs", "experiment": "5-FOA resistance in hESC co-culture (FACS)", "details": "for Viable cell counts, GFP−: co-culture", "excerpt": "as §2, §3"}, "[5]": {"tested_on": "UMPS^KO/KO/GFP^+ K562 cells", "experiment": "Auxotrophy assay in K562 cells", "method": "The sorted UMPS^KO/KO/GFP^+ cell population were subjected to assays evaluating their auxotrophy and their resistance to 5-FOA. The cells were split into samples of equal numbers and cultured in the presence of different concentrations of Uridine or without. […] Cell growth was inhibited at a lower concentration (25 μg/ml) while cell numbers declined with a lower concentration or no Uridine (FIG. 6E)."}, "[6]": {"tested_on": "CCR5 knockout T cells", "experiment": "Growth time course with/without UMP or uridine", "details": "metabolite 250 μg/ml", "method": "(§4) Genomic DNA was harvested using QUICKEXTRACT™ DNA Extraction Kit (Epicentre). Cells were counted on an automated cell counter using Trypan blue staining or on a CytoFLEX flow cytometer (Beckman Coulter) with automatic plate reader using COUNTBRIGHT™ beads (ThermoFisher) as a reference for normalizing the values. Alternatively, cells were analyzed after staining with fluorochrome-labelled antibodies (Biolegend) on an ACCURI™ C6 flow cytometer (BD Biosciences), which also measures volumes, or a FACS ARIA™ II SORP cell sorter (BD Biosciences). Data was analyzed using Excel (Microsoft) and FlowJo software (Tree Star).\n(§5) T Cells were electroporated and edited as in Example 2 and allowed to recover for a 4-day period in medium with serum, uridine, and UMP. On day 4, cells were shifted to UMP, uridine, or uracil source media.\n(§6) To evaluate whether the UMPS knockout leads to differential cell proliferation if cultured without the addition of Uridine or Uridine monophosphate (UMP), the cell counts in culture were followed over time by automatic cell counting with Trypan blue staining. UMPS knockout led to lower cell counts from day 2 after electroporation, compared to cells that were mock electroporated or electroporated using Cas9 targeting a different genomic locus (i.e., CCR5) (FIG. 5B)."}, "[7]": {"tested_on": "UMPS knockout T cells", "experiment": "Growth time course with/without UMP or uridine", "method": "as §4, §5, §6"}, "[8]": {"tested_on": "Mock T cells", "experiment": "Growth time course with/without UMP or uridine", "details": "metabolite 250 μg/ml", "method": "as §4, §5, §6"}, "[9]": {"details": "UMPS knockout, metabolite 250 μg/ml"}}, "note": "Values joined by “and” are separate entries in the source; they are usually repeats but may differ in a detail not shown here. Equal entries are not always repeated.", "data": [{"smiles": "O=C(O)c1[nH]c(=O)[nH]c(=O)c1F", "note": "[5-FOA, 5-fluoroorotic acid]", "values": [{"measurement": "Average of cells per volume unit", "setting": "[1]; No UMP/Uridine", "value": "52156.98 cells per volume unit and 67438.73 cells per volume unit"}, {"measurement": "Average number of cells per volume unit", "setting": "[1]; No Serum, No UMP/Uridine", "value": 56895.21, "unit": "cells per volume unit"}, {"measurement": "Average number of cells per volume unit", "setting": "[1]; With Serum, No UMP/Uridine", "value": 54282.95, "unit": "cells per volume unit"}, {"measurement": "Average of cells per volume unit", "setting": "[2]; No UMP/Uridine", "value": "12279.07 cells per volume unit and 16467.39 cells per volume unit"}, {"measurement": "Average number of cells per volume unit", "setting": "[2]; No Serum, No UMP/Uridine", "value": 13947.04, "unit": "cells per volume unit"}, {"measurement": "Average number of cells per volume unit", "setting": "[2]; With Serum, No UMP/Uridine", "value": 13403.28, "unit": "cells per volume unit"}, {"measurement": "tolerance of UMPS-KO cells to 5-FOA", "setting": "[3]; 0.25 μg/ml", "value": "tolerated the concentration of 0.25 μg/ml well"}, {"measurement": "Viable cell counts, GFP+", "setting": "[3]; 5-FOA 0.25 μg/ml", "value": 142820}, {"measurement": "Viable cell counts, GFP+", "setting": "[3]; 5-FOA 2.5 μg/ml", "value": 11812.5}, {"measurement": "Viable cell counts, GFP+", "setting": "[3]; 5-FOA 25 μg/ml", "value": 8455.98}, {"measurement": "proliferation of UMPS-KO cells in 5-FOA", "setting": "[3]; concentrations above 0.25 μg/ml", "value": "impaired proliferation at higher concentrations"}, {"measurement": "cells GFP+", "setting": "[3]; groups with 5-FOA (54.8% without 5-FOA)", "value": 95.0, "unit": "%"}, {"measurement": "sensitivity of UMPS-WT cells to 5-FOA", "setting": "[4]; all tested concentrations (0.25-25 μg/ml)", "value": "sensitive to all tested 5-FOA concentrations"}, {"measurement": "Viable cell counts, GFP−", "setting": "[4]; 5-FOA 0.25 μg/ml", "value": 5180}, {"measurement": "Viable cell counts, GFP−", "setting": "[4]; 5-FOA 2.5 μg/ml", "value": 687.5}, {"measurement": "Viable cell counts, GFP−", "setting": "[4]; 5-FOA 25 μg/ml", "value": 334.02}]}, {"smiles": "O=c1ccn([C@@H]2O[C@H](CO)[C@@H](O)[C@H]2O)c(=O)[nH]1", "note": "[Uridine]", "values": [{"measurement": "survival in 5-FOA compared to control", "setting": "[1]; UMPS targeted cells", "value": "improved the survival"}, {"measurement": "Average of cells per volume unit", "setting": "[1]; with substrate", "value": 77755.72, "unit": "cells per volume unit"}, {"measurement": "Average of cells per volume unit", "setting": "[2]; with substrate", "value": 53052.43, "unit": "cells per volume unit"}, {"measurement": "survival in 5-FOA compared to control", "setting": "[2]; mock treated cells", "value": "improved the survival"}, {"measurement": "Number of cells per ml, Day 1", "setting": "[5]; 2.5 ug/ml Uridine", "value": "57.83 cells per ml and 49.52 cells per ml and 40.56 cells per ml"}, {"measurement": "Number of cells per ml, Day 1", "setting": "[5]; 25 ug/ml Uridine", "value": "60.92 cells per ml and 69.81 cells per ml and 58.10 cells per ml"}, {"measurement": "Number of cells per ml, Day 1", "setting": "[5]; 250 ug/ml Uridine", "value": "83.41 cells per ml and 109.11 cells per ml and 64.28 cells per ml"}, {"measurement": "Number of cells per ml, Day 8", "setting": "[5]; 250 ug/ml Uridine", "value": "631.12 cells per ml and 629.35 cells per ml and 318.17 cells per ml"}, {"measurement": "cell growth", "setting": "[5]; Uridine 25 μg/ml", "value": "inhibited"}, {"measurement": "cell growth", "setting": "[5]; Uridine 250 μg/ml", "value": "expanded rapidly"}, {"measurement": "cell numbers", "setting": "[5]; lower Uridine concentration (2.5 μg/ml) or no Uridine", "value": "declined"}, {"measurement": "Cell density, Day 1", "setting": "[6]", "value": "9.67E+05", "unit": "cells per ml"}, {"measurement": "Cell density, Day 2", "setting": "[6]", "value": "1.71E+06", "unit": "cells per ml"}, {"measurement": "Cell density, Day 4", "setting": "[6]", "value": "3.70E+06", "unit": "cells per ml"}, {"measurement": "Cell density, Day 6", "setting": "[6]", "value": "3.92E+06", "unit": "cells per ml"}, {"measurement": "Cell density, Day 8", "setting": "[6]", "value": "3.96E+06", "unit": "cells per ml"}, {"measurement": "Cell density, Day 1", "setting": "[7]; [9]", "value": "7.69E+05", "unit": "cells per ml"}, {"measurement": "Cell density, Day 2", "setting": "[7]; [9]", "value": "1.59E+06", "unit": "cells per ml"}, {"measurement": "Cell density, Day 4", "setting": "[7]; [9]", "value": "3.43E+06", "unit": "cells per ml"}, {"measurement": "Cell density, Day 6", "setting": "[7]; [9]", "value": "3.79E+06", "unit": "cells per ml"}, {"measurement": "Cell density, Day 8", "setting": "[7]; [9]", "value": "3.17E+06", "unit": "cells per ml"}, {"measurement": "Number of viable cells per ml, Day 1", "setting": "[7]; [9]", "value": 769000, "unit": "cells per ml"}, {"measurement": "Number of viable cells per ml, Day 2", "setting": "[7]; [9]", "value": 1590000, "unit": "cells per ml"}, {"measurement": "Number of viable cells per ml, Day 4", "setting": "[7]; [9]", "value": 3430000, "unit": "cells per ml"}, {"measurement": "Number of viable cells per ml, Day 6", "setting": "[7]; [9]", "value": 3790000, "unit": "cells per ml"}, {"measurement": "Number of viable cells per ml, Day 8", "setting": "[7]; [9]", "value": 3170000, "unit": "cells per ml"}, {"measurement": "growth of UMPS edited culture", "setting": "[7]; exogenous uracil source 250 μg/ml", "value": "rescued the growth of an UMPS edited culture to the same level as mock edited cells"}, {"measurement": "cell proliferation after UMPS knockout", "setting": "[7]; supplemented at 250 μg/ml", "value": "not impaired"}, {"measurement": "Cell density, Day 1", "setting": "[8]", "value": "9.78E+05", "unit": "cells per ml"}, {"measurement": "Cell density, Day 2", "setting": "[8]", "value": "1.98E+06", "unit": "cells per ml"}, {"measurement": "Cell density, Day 4", "setting": "[8]", "value": "3.90E+06", "unit": "cells per ml"}, {"measurement": "Cell density, Day 6", "setting": "[8]", "value": "4.91E+06", "unit": "cells per ml"}, {"measurement": "Cell density, Day 8", "setting": "[8]", "value": "4.09E+06", "unit": "cells per ml"}]}]}
